In PubChem BioAssay AID743504 (Broad Institute, 2014) one finds IC50 data, which are given here for 5 compounds.

The source made the active and inactive calls.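 Rule for the calls: active = compounds blocking the hormone-driven reporter light with IC50 under 35 µM; inactive = IC50 above 35 µM, or no measured IC50.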

This assay concerns the target Bursicon receptor (Drosophila rickets, LGR2). Put plainly: inhibition of bursicon-stimulated LGR2 cAMP signaling – cell-based, HEK293, CRE-luciferase, beta-gal normalized, dry powder, set 4, dose response (AID 743504). As to conditions: antagonist.

As to `C[C@@H]1CCCCO[C@H](CN(C)C(=O)Nc2ccc(F)cc2)[C@H](C)CN([C@@H](C)CO)C(=O)c2cc(NC(=O)C3CCCCC3)ccc2O1`, the IC50 (in general, the concentration that gives 50% inhibition) is > 35 µM (inactive).
As for `C[C@H](CO)N1C[C@H](C)[C@H](CN(C)C(=O)Nc2ccccc2)OCCCC[C@H](C)Oc2ccc(NC(=O)C3CCCCC3)cc2C1=O`, the figure is below 35 µM; as for `C[C@H](CO)N1C[C@H](C)[C@H](CN(C)C(=O)Nc2ccc3c(c2)OCO3)OCCCC[C@H](C)Oc2ccc(NC(=O)C3CCCCC3)cc2C1=O`, below 35 µM.
On to `C[C@H](CO)N1C[C@H](C)[C@H](CN(C)C(=O)Nc2ccc(F)cc2)OCCCC[C@H](C)Oc2ccc(NC(=O)C3CCCCC3)cc2C1=O`, for which the IC50 was below 35 µM.
`COc1ccc(NC(=O)N(C)C[C@@H]2OCCCC[C@H](C)Oc3ccc(NC(=O)C4CCCCC4)cc3C(=O)N([C@H](C)CO)C[C@@H]2C)cc1`: the IC50 is below 35 µM.
